Assay results reported in US5843999A, “2-phenylazulene derivatives and a manufacturing method of these compounds” (Kotobuki Seiyaku Co., Ltd., priority 1996, dated 1998).
pIC50: −log10 of the molar value.

Tests used:
[1] = biological target: T1, COX-2 (Homo sapiens, UniProt P35354); assay: Inhibitory activity on COX-2 (PGE2 production from arachidonic acid, PGE2 ELISA; Needleman method); type: biochemical; details: 1 mM arachidonic acid, 1 μM hematin, pH 8.0, 37° C., 10 min
T1 sequence (P35354 18-604): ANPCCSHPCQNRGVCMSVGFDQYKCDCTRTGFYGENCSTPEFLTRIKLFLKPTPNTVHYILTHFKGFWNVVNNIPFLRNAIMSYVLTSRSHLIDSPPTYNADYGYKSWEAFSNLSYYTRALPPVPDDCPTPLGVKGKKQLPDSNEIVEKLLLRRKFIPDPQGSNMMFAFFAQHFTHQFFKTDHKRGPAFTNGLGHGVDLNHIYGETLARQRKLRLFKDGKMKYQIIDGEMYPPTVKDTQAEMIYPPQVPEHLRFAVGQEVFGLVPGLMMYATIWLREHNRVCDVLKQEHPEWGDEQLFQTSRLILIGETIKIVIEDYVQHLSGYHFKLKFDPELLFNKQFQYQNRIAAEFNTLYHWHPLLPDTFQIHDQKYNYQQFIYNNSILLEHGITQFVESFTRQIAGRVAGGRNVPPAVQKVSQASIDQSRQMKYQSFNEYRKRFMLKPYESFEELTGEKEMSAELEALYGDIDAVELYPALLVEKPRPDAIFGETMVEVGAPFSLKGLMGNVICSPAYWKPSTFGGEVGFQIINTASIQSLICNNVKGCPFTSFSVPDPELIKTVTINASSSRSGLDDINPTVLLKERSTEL
Description: (§1) Pharmacological experiment are as follows. Inhibitory activity of compounds on COX-1 and COX-2 were assayed according to the method of Needleman (J. Biol. Chem., 254, 9772, 1979). One unit of COX-1 or COX-2 enzyme, suspended with Tris-HCl buffer (pH 8.0, 500 μl) containing 1 μM hematin as co-factor, was incubated with compound and 1 mM arachidonic acid at 37° C. for 10 min. The reaction was stopped with 50 mM indomethacin (50 μl), and amounts of PGE2 in the reaction mixture was assayed using PGE2 ELISA system.

[2] = biological target: COX-1 (Homo sapiens, UniProt P23219); assay: Inhibitory activity on COX-1 (PGE2 production from arachidonic acid, PGE2 ELISA; Needleman method); type: biochemical; details: 1 mM arachidonic acid, 1 μM hematin, pH 8.0, 37° C., 10 min
Description: as §1

Sequence of COX-1 (P23219 24-599): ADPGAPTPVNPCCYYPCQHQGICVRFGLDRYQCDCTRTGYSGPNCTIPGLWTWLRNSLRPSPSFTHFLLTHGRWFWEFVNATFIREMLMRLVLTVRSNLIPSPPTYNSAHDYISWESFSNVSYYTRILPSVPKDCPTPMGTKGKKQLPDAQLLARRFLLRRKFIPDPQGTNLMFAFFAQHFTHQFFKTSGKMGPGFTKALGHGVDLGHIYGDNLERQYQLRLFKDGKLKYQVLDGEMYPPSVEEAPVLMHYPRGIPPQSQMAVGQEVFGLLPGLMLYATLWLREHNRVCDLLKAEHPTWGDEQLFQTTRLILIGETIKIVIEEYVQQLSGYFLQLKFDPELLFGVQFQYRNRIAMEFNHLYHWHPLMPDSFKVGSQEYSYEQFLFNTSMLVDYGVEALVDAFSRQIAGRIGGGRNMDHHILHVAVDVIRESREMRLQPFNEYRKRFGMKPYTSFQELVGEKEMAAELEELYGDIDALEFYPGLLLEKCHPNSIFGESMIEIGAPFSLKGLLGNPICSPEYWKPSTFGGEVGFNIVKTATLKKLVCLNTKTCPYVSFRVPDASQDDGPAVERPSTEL

CS(=O)(=O)c1ccc(-c2cc3cccccc-3c2-c2ccccc2)cc1 [Compound 1, 2-(4-Methylsulfonylphenyl)-1-phenylazulene]
pIC50 [1]: 6.12 | pIC50 [2]: < 5.00

CS(=O)(=O)c1ccc(-c2cc3cccccc-3c2-c2ccccc2Cl)cc1 [Compound 2, 1-(2-Chlorophenyl)-2-(4-methylsulfonylphenyl)azulene]
pIC50 [1]: 5.16 | pIC50 [2]: < 5.00

CS(=O)(=O)c1ccc(-c2cc3cccccc-3c2-c2cccc(Cl)c2)cc1 [Compound 3, 1-(3-Chlorophenyl)-2-(4-methylsulfonylphenyl)azulene]
pIC50 [1]: 8.03 | pIC50 [2]: < 5.00

CS(=O)(=O)c1ccc(-c2cc3cccccc-3c2-c2ccc(Cl)cc2)cc1 [Compound 4, 1-(4-Chlorophenyl)-2-(4-methylsulfonylphenyl)azulene]
pIC50 [1]: 7.52 | pIC50 [2]: < 5.00

CS(=O)(=O)c1ccc(-c2cc3cccccc-3c2-c2cccc(F)c2)cc1 [Compound 5, 1-(3-Fluorophenyl)-2-(4-methylsulfonylphenyl)azulene]
pIC50 [1]: < 5.00 | pIC50 [2]: < 5.00

CS(=O)(=O)c1ccc(-c2cc3cccccc-3c2-c2ccc(F)cc2)cc1 [Compound 6, 1-(4-Fluorophenyl)-2-(4-methylsulfonylphenyl)azulene]
pIC50 [1]: 5.92 | pIC50 [2]: < 5.00

Cc1cccc(-c2c3cccccc-3cc2-c2ccc(S(C)(=O)=O)cc2)c1 [Compound 7, 1-(3-Methylphenyl)-2-(4-methylsulfonylphenyl)azulene]
pIC50 [1]: 7.32 | pIC50 [2]: < 5.00

Cc1ccc(-c2c3cccccc-3cc2-c2ccc(S(C)(=O)=O)cc2)cc1 [Compound 8, 1-(4-Methylphenyl)-2-(4-methylsulfonylphenyl)azulene]
pIC50 [1]: 5.13 | pIC50 [2]: < 5.00

COc1cccc(-c2c3cccccc-3cc2-c2ccc(S(C)(=O)=O)cc2)c1 [Compound 9, 1-(3-Methoxyphenyl)-2-(4-methylsulfonylphenyl)azulene]
pIC50 [1]: 5.32 | pIC50 [2]: < 5.00

COc1ccc(-c2c3cccccc-3cc2-c2ccc(S(C)(=O)=O)cc2)cc1 [Compound 10, 1-(4-Methoxyphenyl)-2-(4-methylsulfonylphenyl)azulene]
pIC50 [1]: 5.43 | pIC50 [2]: < 5.00

CS(=O)(=O)c1ccc(-c2cc3cccccc-3c2-c2ccc(F)c(Cl)c2)cc1 [Compound 11, 1-(3-Chloro-4-fluorophenyl)-2-(4-methylsulfonylphenyl)azulene]
pIC50 [1]: 7.08 | pIC50 [2]: < 5.00

Cc1ccc(-c2c3cccccc-3cc2-c2ccc(S(C)(=O)=O)cc2)cc1Cl [Compound 12, 1-(3-Chloro-4-methylphenyl)-2-(4-methylsulfonylphenyl)azulene]
pIC50 [1]: 8.31 | pIC50 [2]: < 5.00

COc1ccc(-c2c3cccccc-3cc2-c2ccc(S(C)(=O)=O)cc2)cc1Cl [Compound 13, 1-(3-Chloro4-methoxyphenyl)-2-(4-methylsulfonylphenyl)azulene]
pIC50 [1]: 7.72 | pIC50 [2]: < 5.00

COc1ccc(-c2c3cccccc-3cc2-c2ccc(S(C)(=O)=O)cc2)cc1F [Compound 14, 1-(3-Fluoro-4-methoxyphenyl)-2-(4-methylsulfonylphenyl)azulene]
pIC50 [1]: 8.08 | pIC50 [2]: < 5.00

CS(=O)(=O)c1ccc(-c2c(F)c3cccccc-3c2-c2ccccc2)cc1 [Compound 21, 1-Fluoro-2-(4-methylsulfonylphenyl)-3-phenylazulene]
pIC50 [1]: 5.10 | pIC50 [2]: < 5.00

NS(=O)(=O)c1ccc(-c2cc3cccccc-3c2-c2ccccc2)cc1 [Compound 27, 4-(1-Phenylazulene-2-yl)phenylsulfonamide]
pIC50 [1]: 8.07 | pIC50 [2]: < 5.00

NS(=O)(=O)c1ccc(-c2cc3cccccc-3c2-c2cccc(Cl)c2)cc1 [Compound 28, 4-[1-(3-Chlorophenyl)azulene-2-yl]phenylsulfonamide]
pIC50 [1]: 5.59 | pIC50 [2]: 5.12

NS(=O)(=O)c1ccc(-c2cc3cccccc-3c2-c2cccc(F)c2)cc1 [Compound 29, 4-[1-(3-Fluorophenyl)azulene-2-yl]phenylsulfonamide]
pIC50 [1]: 6.11 | pIC50 [2]: 5.33

Cc1cccc(-c2c3cccccc-3cc2-c2ccc(S(N)(=O)=O)cc2)c1 [Compound 30, 4-[1-(3-Methylphenyl)azulene-2-yl]phenylsulfonamide]
pIC50 [1]: 6.30 | pIC50 [2]: 5.37

COc1cccc(-c2c3cccccc-3cc2-c2ccc(S(N)(=O)=O)cc2)c1 [Compound 31, 4-[1-(3-Methoxyphenyl)azulene-2-yl]phenylsulfonamide]
pIC50 [1]: 5.60 | pIC50 [2]: < 5.00

NS(=O)(=O)c1ccc(-c2cc3cccccc-3c2-c2ccc(F)c(Cl)c2)cc1 [Compound 32, 4-[1-(3-Chloro-4-fluorophenyl)azulene-2-yl]phenylsulfonamide]
pIC50 [1]: 7.92 | pIC50 [2]: < 5.00

Cc1ccc(-c2c3cccccc-3cc2-c2ccc(S(N)(=O)=O)cc2)cc1Cl [Compound 33, 4-[1-(3-Chloro4-methylphenyl)azulene-2-yl]phenylsulfonamide]
pIC50 [1]: 8.59 | pIC50 [2]: 5.39

COc1ccc(-c2c3cccccc-3cc2-c2ccc(S(N)(=O)=O)cc2)cc1Cl [Compound 34, 4-[1-(3-Chloro4-methoxyphenyl)azulene-2-yl]phenylsulfonamide]
pIC50 [1]: 8.47 | pIC50 [2]: 6.02

COc1ccc(-c2c3cccccc-3cc2-c2ccc(S(N)(=O)=O)cc2)cc1F [Compound 35, 4-[l-(3-Fluoro-4-methoxyphenyl)azulene-2-yl]phenylsulfonamide]
pIC50 [1]: 7.66 | pIC50 [2]: 5.17

COc1ccc(-c2c3cccccc-3cc2-c2ccc(S(C)(=O)=O)cc2)cc1OC [Compound 38, 1-(3,4-Dimethoxyphenyl)-2-(4-methylsulfonylphenyl)azulene]
pIC50 [1]: 7.19 | pIC50 [2]: < 5.00

COc1ccc(-c2c3cccccc-3cc2-c2ccc(S(N)(=O)=O)cc2)cc1OC [Compound 39, 4-[1-(3,4-Dimethoxyphenyl)azulene-2-yl]phenylsulfonamide]
pIC50 [1]: 6.54 | pIC50 [2]: < 5.00
